Experimental findings from ChEMBL document CHEMBL3991601, “The target landscape of clinical kinase drugs” (Science, 2017) are described below.

In test [1] the target is T1, EKC/KEOPS complex subunit TP53RK (Homo sapiens, UniProt Q96S44).
T1 sequence (Q96S44 whole entry): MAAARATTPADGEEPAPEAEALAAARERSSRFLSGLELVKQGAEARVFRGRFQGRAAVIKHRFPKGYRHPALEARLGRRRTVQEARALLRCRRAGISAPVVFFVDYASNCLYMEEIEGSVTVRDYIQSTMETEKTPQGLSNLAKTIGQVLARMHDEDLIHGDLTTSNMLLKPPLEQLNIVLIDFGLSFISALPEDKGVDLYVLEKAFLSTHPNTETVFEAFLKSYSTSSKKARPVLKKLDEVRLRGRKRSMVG

Test [2] addresses Serine/threonine-protein kinase PAK 4 (Homo sapiens, UniProt O96013).
Test [3] has as its target Ribosomal protein S6 kinase alpha-3 (Homo sapiens, UniProt P51812).
For test [4], the target named is T2, General transcription and DNA repair factor IIH helicase subunit XPD (Homo sapiens, UniProt P18074).
T2 sequence (P18074 whole entry): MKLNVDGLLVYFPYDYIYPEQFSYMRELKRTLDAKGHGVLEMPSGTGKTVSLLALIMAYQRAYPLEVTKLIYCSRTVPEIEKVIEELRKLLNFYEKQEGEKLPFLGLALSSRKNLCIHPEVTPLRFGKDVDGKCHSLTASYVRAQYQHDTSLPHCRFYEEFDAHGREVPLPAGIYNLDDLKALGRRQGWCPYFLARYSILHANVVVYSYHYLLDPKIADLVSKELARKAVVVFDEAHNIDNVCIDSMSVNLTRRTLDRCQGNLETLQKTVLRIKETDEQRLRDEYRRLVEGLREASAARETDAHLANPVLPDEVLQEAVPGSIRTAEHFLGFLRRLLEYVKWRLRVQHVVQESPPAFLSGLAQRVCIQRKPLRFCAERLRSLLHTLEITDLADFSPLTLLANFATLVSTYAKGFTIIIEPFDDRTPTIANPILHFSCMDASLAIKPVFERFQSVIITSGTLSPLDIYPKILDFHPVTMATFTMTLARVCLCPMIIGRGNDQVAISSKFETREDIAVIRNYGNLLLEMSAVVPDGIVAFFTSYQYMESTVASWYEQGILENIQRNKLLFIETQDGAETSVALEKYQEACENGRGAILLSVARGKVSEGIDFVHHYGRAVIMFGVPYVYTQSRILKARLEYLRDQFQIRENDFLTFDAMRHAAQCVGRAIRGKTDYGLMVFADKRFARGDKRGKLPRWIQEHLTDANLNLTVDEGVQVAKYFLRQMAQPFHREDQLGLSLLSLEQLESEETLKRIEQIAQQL
Conditions: read-out: Kd apparent; k-562, colo 205, sk-n-be(2) and mv-4-11.

Test [5] addresses T3, Serine/threonine-protein kinase LATS1 (Homo sapiens, UniProt O95835).
T3 sequence (O95835 whole entry): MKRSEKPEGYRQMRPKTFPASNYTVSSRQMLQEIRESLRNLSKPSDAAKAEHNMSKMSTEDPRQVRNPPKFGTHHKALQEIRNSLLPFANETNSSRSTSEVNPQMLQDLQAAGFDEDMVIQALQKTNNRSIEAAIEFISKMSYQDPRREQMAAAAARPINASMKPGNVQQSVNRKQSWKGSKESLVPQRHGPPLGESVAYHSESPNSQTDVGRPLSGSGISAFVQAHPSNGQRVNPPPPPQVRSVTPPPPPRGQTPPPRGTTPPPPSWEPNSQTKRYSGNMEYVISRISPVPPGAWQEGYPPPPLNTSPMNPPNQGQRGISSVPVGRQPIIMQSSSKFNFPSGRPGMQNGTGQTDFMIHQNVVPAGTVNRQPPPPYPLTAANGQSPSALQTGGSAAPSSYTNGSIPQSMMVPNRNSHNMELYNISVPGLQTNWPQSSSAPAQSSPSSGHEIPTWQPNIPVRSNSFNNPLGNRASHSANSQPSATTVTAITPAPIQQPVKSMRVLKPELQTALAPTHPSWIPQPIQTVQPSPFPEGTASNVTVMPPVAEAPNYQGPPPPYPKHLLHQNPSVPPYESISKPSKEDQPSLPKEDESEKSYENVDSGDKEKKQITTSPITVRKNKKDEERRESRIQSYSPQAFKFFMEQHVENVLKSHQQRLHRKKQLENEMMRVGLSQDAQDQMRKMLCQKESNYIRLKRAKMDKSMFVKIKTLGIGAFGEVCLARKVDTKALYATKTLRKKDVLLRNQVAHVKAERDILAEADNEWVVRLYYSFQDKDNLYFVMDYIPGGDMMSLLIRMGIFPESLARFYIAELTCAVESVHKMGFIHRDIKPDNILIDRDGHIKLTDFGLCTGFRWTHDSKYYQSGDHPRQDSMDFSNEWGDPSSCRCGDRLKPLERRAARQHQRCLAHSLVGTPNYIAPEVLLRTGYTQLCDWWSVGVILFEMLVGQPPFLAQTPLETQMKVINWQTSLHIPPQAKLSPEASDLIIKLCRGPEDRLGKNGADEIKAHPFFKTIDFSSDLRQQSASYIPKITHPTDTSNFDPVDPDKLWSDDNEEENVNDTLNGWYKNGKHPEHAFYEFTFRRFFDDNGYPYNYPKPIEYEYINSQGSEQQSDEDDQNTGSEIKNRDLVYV

The target in test [6] is T4, ATP-dependent RNA helicase DDX1 (Homo sapiens, UniProt Q92499).
T4 sequence (Q92499 whole entry): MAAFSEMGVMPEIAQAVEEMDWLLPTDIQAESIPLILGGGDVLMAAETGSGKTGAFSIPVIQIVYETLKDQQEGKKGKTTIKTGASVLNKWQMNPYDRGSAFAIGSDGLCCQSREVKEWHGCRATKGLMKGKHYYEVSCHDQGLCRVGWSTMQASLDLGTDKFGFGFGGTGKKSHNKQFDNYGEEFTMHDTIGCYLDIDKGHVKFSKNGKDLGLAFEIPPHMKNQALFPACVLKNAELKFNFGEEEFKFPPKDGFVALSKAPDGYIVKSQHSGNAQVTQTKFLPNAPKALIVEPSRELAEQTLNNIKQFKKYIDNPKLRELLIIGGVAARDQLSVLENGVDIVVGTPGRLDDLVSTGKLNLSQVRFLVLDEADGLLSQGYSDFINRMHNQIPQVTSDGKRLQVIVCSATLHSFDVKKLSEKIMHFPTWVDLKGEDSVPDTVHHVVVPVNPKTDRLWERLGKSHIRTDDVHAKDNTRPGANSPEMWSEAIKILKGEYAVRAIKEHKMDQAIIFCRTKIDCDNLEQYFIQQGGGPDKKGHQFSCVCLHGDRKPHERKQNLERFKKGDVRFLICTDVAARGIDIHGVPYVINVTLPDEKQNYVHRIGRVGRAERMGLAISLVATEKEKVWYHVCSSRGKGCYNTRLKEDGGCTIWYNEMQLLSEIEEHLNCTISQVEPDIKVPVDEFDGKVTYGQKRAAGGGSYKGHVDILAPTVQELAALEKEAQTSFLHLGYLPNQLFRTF

Active and inactive are the calls of the source. Cut-off read from the data, not from the text of the source, for most assays here: actives have a measured Kd and inactives only a lower limit.
Note: in the data inactive means no Kd found up to 30 µM.

Chain of Serine/threonine-protein kinase PAK 4 (O96013 whole entry): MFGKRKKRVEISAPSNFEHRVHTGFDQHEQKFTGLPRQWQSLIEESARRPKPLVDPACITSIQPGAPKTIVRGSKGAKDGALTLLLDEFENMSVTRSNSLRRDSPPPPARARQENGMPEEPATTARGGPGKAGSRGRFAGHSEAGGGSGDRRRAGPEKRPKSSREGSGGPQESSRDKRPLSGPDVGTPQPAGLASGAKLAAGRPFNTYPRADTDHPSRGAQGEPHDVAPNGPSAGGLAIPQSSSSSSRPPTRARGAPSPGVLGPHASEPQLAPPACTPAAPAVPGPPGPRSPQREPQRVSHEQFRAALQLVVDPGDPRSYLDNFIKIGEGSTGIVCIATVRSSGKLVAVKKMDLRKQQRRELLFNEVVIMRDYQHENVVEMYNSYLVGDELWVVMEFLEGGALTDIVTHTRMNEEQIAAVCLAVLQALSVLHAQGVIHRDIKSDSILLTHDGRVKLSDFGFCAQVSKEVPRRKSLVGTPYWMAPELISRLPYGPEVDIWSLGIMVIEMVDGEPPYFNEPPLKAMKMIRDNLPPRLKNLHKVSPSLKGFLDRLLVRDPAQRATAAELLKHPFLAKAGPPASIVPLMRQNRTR
Chain of Ribosomal protein S6 kinase alpha-3 (P51812 whole entry): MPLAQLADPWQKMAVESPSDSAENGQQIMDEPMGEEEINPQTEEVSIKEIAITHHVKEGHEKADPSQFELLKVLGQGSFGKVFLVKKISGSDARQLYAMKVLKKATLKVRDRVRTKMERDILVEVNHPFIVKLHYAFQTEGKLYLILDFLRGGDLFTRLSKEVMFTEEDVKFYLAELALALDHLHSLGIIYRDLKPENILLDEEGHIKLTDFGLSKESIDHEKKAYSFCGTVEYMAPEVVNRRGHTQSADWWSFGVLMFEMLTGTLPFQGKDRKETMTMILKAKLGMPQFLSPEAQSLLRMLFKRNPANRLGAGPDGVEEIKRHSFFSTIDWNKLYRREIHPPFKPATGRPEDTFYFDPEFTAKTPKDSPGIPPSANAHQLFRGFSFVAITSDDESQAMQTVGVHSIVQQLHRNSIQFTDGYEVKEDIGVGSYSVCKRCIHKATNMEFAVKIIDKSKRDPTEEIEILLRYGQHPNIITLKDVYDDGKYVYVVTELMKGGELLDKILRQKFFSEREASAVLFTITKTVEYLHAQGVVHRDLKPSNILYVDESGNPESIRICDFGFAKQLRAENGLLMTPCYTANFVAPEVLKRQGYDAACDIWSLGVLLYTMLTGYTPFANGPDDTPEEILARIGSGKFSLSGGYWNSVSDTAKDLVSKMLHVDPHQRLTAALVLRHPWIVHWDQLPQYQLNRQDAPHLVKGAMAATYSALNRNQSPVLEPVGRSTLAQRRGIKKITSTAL

As to `CCN1CCN(Cc2ccc(Nc3ncc(F)c(-c4cc(F)c5nc(C)n(C(C)C)c5c4)n3)nc2)CC1` [ABEMACICLIB], the Kd in test [1], in test [2], in test [3], in test [4], in test [5] and in test [6] was > 30 µM (inactive) each time.
For the compound `C[C@@H]1COC(Nc2ccc3ncnc(Nc4ccc(OCc5nccs5)c(Cl)c4)c3c2)=N1` [VARLITINIB], the Kd in test [1], in test [2], in test [3], in test [4], in test [5] and in test [6] was > 30 µM (inactive) each time.
Turning to `NC(=O)c1ccc(N(C(N)=O)c2c(F)cccc2F)nc1-c1ccc(F)cc1F` [VX-702], the Kd in test [1], in test [2], in test [3], in test [4], in test [5] and in test [6] was > 30 µM (inactive) each time.
As for `COCCN1CCN(Cc2ccc(-c3n[nH]c4c3C(=O)c3c(NC(=O)NN5CCOCC5)cccc3-4)cc2)CC1` [RGB-286638], the Kd in test [1] was 1.72 µM (active); in test [2], > 30 µM (inactive); in test [3] it was > 30 µM (inactive); in test [4] it was 0.456 µM (active); in test [5], > 30 µM (inactive); in test [6], > 30 µM (inactive).
`Cn1c(=O)c(F)c(Nc2ccc(I)cc2F)c2c(=O)n(C[C@@H](O)CO)cnc21` [TAK-733]: the Kd in test [1], in test [2], in test [3], in test [4], in test [5] and in test [6] was > 30 µM (inactive) in each case.
Consider `COc1cc(Nc2ncc(F)c(Nc3ccc4c(n3)N(COP(=O)(O)O)C(=O)C(C)(C)O4)n2)cc(OC)c1OC` [FOSTAMATINIB], for which the Kd is > 30 µM (inactive) in test [1]; > 30 µM (inactive) in test [2]; > 30 µM (inactive) in test [3]; > 30 µM (inactive) in test [4]; 2.16 µM (active) in test [5]; > 30 µM (inactive) in test [6].
Regarding `C#Cc1cccc(Nc2ncnc3cc4c(cc23)OCCOCCOCCO4)c1` [ICOTINIB], the Kd in test [1], in test [2], in test [3], in test [4], in test [5] and in test [6] was > 30 µM (inactive) in each case.
As to `Cn1cc(-c2[nH]c3cc(NC(=O)[C@H](N)C4CCCCC4)cc4c3c2C=NNC4=O)cn1`, the Kd in test [1] was > 30 µM (inactive); in test [2], 0.053 µM (active); in test [3], > 30 µM (inactive); in test [4], > 30 µM (inactive); in test [5], 0.363 µM (active); in test [6] it was > 30 µM (inactive).
Consider `Cc1cc(C(=O)Nc2cc(Oc3ccc4nc(NC(=O)C5CC5)cn4n3)ccc2C)n(C)n1` [TAK-593], for which the Kd in test [1], in test [2], in test [3], in test [4], in test [5] and in test [6] was > 30 µM (inactive) throughout.
On to `NC[C@@](O)(c1ccc(Cl)cc1)c1ccc(-c2cn[nH]c2)cc1` [AT-13148], for which the Kd in test [1] is > 30 µM (inactive); in test [2], > 30 µM (inactive); in test [3], > 30 µM (inactive); in test [4], > 30 µM (inactive); in test [5] it was 0.027 µM (active); in test [6] it was > 30 µM (inactive).
For the compound `COc1cc(F)c(F)c(Nc2ccc(I)cc2F)c1NS(=O)(=O)C1(C[C@H](O)CO)CC1` [REFAMETINIB], the Kd in test [1], in test [2], in test [3], in test [4], in test [5] and in test [6] was > 30 µM (inactive) each time.
For `COc1cc2ncnc3c2cc1OCCCCCN(C)Cc1ccc(Br)cc1N3` [JNJ-26483327], the Kd in test [1], in test [2], in test [3], in test [4], in test [5] and in test [6] was > 30 µM (inactive) in each case.
As to `C=CC(=O)Nc1cccc(Nc2nc(Nc3ccc(N4CCN(C(C)=O)CC4)cc3OC)ncc2C(F)(F)F)c1` [ROCILETINIB], the Kd in test [1], in test [2], in test [3], in test [4], in test [5] and in test [6] was > 30 µM (inactive) each time.
Consider `CCc1cc2c(cc1N1CCC(N3CCOCC3)CC1)C(C)(C)c1[nH]c3cc(C#N)ccc3c1C2=O` [ALECTINIB], for which the Kd in test [1], in test [2], in test [3], in test [4], in test [5] and in test [6] was > 30 µM (inactive) in each case.
